From the NIST ThermoML archive (doi:10.1016/j.tca.2012.07.034)

Conditions: Liquid, DSC

CCCCCCCCCCCCCC(=O)O [tetradecanoic acid]
Conditions	vapor or sublimation pressure [kPa]
464.6 K	1.333
480.8 K	2.666
489.5 K	4
497.2 K	5.333
503.1 K	6.666
508.2 K	7.999
512.6 K	9.333

CCCCCCCCCCCCCCCCCC(=O)O [octadecanoic acid]
Conditions	vapor or sublimation pressure [kPa]
501.3 K	1.333
519.1 K	2.666
528.9 K	4
535.9 K	5.333
543.7 K	6.666
548.7 K	7.999
553.2 K	9.333

CCCCCCCC/C=C\CCCCCCCC(=O)O [(Z)-9-octadecenoic acid]
Conditions	vapor or sublimation pressure [kPa]
496.7 K	1.333
513.1 K	2.666
524.7 K	4
532.1 K	5.333
538.8 K	6.666
543.8 K	7.999
547.4 K	9.333

CCCCCCCCCCCCCCCC(=O)O [hexadecanoic acid]
Conditions	vapor or sublimation pressure [kPa]
483.3 K	1.333
498.6 K	2.666
509 K	4
517.3 K	5.333
523.4 K	6.666
527.9 K	7.999
533.4 K	9.333

CCCCCCCCCCCC(=O)O [dodecanoic acid]
Conditions	vapor or sublimation pressure [kPa]
444.6 K	1.333
458.9 K	2.666
468.5 K	4
475 K	5.333
479.6 K	6.666
484.8 K	7.999
490.5 K	9.333
